PMC10721928, “Structures revealing mechanisms of resistance and collateral sensitivity of Plasmodium falciparum to proteasome inhibitors” (Nature Communications, 2023)
Read-outs that look alike come from different tables or passages of the source.

Key:
DR1/2/4 = assay: Parasite growth inhibition assay, DHA-selected clones; type: cell-based, Plasmodium falciparum
Method: (§1) Parasite growth inhibition assays for P. falciparum wild type and mutants were performed as reported[19],[32].

DR2 = assay: Parasite growth inhibition assay, DR2; type: cell-based; conditions: Plasmodium falciparum, read-out: EC50 (Fig. 1e)
Method: as §1

DR4 = assay: Parasite growth inhibition assay, DR4; type: cell-based; conditions: Plasmodium falciparum, Exp 2; read-out: EC50 (Fig. 1e)
Method: as §1

Cam3.I^Rev = assay: Ring-stage survival assay, revertant; type: cell-based, Plasmodium falciparum; conditions: 700 nM, 6 h
Method: (§2) Ring-stage survival assays (RSA) were performed as reported. Parasite cultures, artemisinin resistant Cam3.I^R539T and the genetically engineered artemisinin sensitive revertant Cam3.I^rev, were synchronized with 5% sorbitol and a Percoll-sorbitol gradient to obtain tightly synchronized late-stage parasites. After isolation, the tightly synchronized parasites were then allowed to reinvade fresh red blood cells for 3 h and the microscopically confirmed ring stage parasite cultures were again subjected to 5% sorbitol to obtain 0–3 h rings. The isolated ring stage cultures were then plated into a 96-well plate at 0.5% parasitemia and treated with DHA and TDI-8304 at 700 nM at 37 °C in standard gas conditions for 6 h. The plates were then spun and washed to remove compounds and replenished with fresh medium without compounds. Parasite growth was assessed 66 h later using flow cytometry (Becton-Dickson flow cytometer) and nucleic acid stains HO (Hoechst 33342) and TO (thiazole orange).

[1] = system: strain with double mutations in both the proteasome and K13; conditions: versus wild-type strain; cited from earlier work
Description: (§3) Mutations in Kelch13 (K13) are associated with ART resistance at the ring stage in laboratory settings[20]–[22]. […] Even a strain with doub ...

Dd2 = assay: Parasite growth inhibition assay, Dd2; type: cell-based; conditions: Plasmodium falciparum
Method: as §1

Cam3.I^R539T = assay: Ring-stage survival assay, ART-resistant; type: cell-based, Plasmodium falciparum; conditions: 700 nM, 6 h
Method: as §2

DR1 = assay: Parasite growth inhibition assay, DR1; type: cell-based; conditions: Plasmodium falciparum, read-out: EC50 (Fig. 1e)
Method: as §1

P. falciparum 3D7A = conditions: compared with pyrimethamine; cited from earlier work
Description: We previously reported two classes of non-covalent Pf20S selective inhibitors, one with a fast-on/off kinetics, represented by TDI-4258[19], and one with a time-dependent inhibition kinetics, represented by TDI-8304 (Fig. 1a)[16]. […] To investigate if inhibitors of the same target with diffe ...

[2] = system: Mutants resistant to proteasome inhibitors; conditions: versus corresponding wild-type strains; cited from earlier work
Description: as §3

## C[C@H]1[C@@H](O)O[C@@H]2O[C@@]3(C)CC[C@H]4[C@H](C)CC[C@@H]1[C@@]24OO3 [DHA, dihydroartemisinin]
DR1/2/4; DHA-selected clones versus Dd2
  EC50 shift in the erythrocyte assays: ~ 10 fold
DR1/2/4; trophozoite stage, versus Dd2
  sensitivity of DR1/2/4 in words: highly resistant
DR2; Exp 1
  EC50: 10.7 nM
DR2; Exp 2
  EC50: 8.7 nM
DR4
  EC50: 8.1 nM
Cam3.I^Rev; 0–3 h rings, readout 66 h later
  ring-stage survival result in words, K13 Rev: highly susceptible
Cam3.I^Rev; Exp 1
  ring-stage survival (Fig. 1c): 1.86
Cam3.I^Rev; Exp 2
  ring-stage survival (Fig. 1c): -0.27
Cam3.I^Rev; Exp 3
  ring-stage survival (Fig. 1c): 3.91
[1]
  susceptibility to DHA: more susceptible to DHA than the wild-type strain
Dd2; DD2, read-out: EC50 (Fig. 1e), Exp 1
  EC50: 1 nM
Dd2; DD2, read-out: EC50 (Fig. 1e), Exp 2
  EC50: 0.9 nM
Cam3.I^R539T; 0–3 h rings, readout 66 h later, means of three independent experiments, paired t test
  ring-stage survival result in words, K13 R539T: highly resistant
Cam3.I^R539T; Exp 1
  ring-stage survival (Fig. 1c): 18.01
Cam3.I^R539T; Exp 2
  ring-stage survival (Fig. 1c): 10.3
Cam3.I^R539T; Exp 3
  ring-stage survival (Fig. 1c): 6.84
DR1; Exp 1
  EC50: 12.2 nM
DR1; Exp 2
  EC50: 7.1 nM

## Cc1cc(C(=O)N[C@@H](CC(=O)NC(C)(C)C)C(=O)NCCNC(=O)c2cccc(-n3cccn3)c2)no1 [TDI-4258]
P. falciparum 3D7A
  in vitro parasite reduction ratio: modest in vitro parasite reduction ratio similar to that of the antimalarial drug pyrimethamine

## C[C@@H]1CC[C@H]2[C@@H](C)C(=O)O[C@@H]3O[C@@]4(C)CC[C@@H]1[C@]32OO4 [ART, artemisinin]
[2]
  susceptibility to ART: more susceptible to ART than the corresponding wild-type strains
